Assays:
P2X7 receptor = P2X7 receptor (Homo sapiens (Human), UniProt Q99572); assay: Human P2X7 channel calcium-influx assay (Fluo-8 NW, FLIPR TETRA, Bz-ATP stimulation); assay type: cell-based; conditions: HEK-293 cells stably transfected with P2X7 receptor, Low Divalent Cation Assay Buffer, read-out: hP2X7 IC50
Summary of the method: (§1)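 HEK-293 cells stably expressing human or mouse P2X7, preloaded with Fluo-8 NW dye for 1 h at RT. Compounds added, Bz-ATP-evoked Ca2+ influx followed as fluorescence kinetics over 5 min on FLIPR TETRA; A438079 served as reference antagonist.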

mP2X7 = mP2X7 (Mus musculus (Mouse), UniProt Q9Z1M0); assay: mP2X7 channel calcium-influx assay (Fluo-8 NW, FLIPR TETRA, Bz-ATP stimulation); assay type: cell-based
Chain of mP2X7 (Q9Z1M0 whole entry): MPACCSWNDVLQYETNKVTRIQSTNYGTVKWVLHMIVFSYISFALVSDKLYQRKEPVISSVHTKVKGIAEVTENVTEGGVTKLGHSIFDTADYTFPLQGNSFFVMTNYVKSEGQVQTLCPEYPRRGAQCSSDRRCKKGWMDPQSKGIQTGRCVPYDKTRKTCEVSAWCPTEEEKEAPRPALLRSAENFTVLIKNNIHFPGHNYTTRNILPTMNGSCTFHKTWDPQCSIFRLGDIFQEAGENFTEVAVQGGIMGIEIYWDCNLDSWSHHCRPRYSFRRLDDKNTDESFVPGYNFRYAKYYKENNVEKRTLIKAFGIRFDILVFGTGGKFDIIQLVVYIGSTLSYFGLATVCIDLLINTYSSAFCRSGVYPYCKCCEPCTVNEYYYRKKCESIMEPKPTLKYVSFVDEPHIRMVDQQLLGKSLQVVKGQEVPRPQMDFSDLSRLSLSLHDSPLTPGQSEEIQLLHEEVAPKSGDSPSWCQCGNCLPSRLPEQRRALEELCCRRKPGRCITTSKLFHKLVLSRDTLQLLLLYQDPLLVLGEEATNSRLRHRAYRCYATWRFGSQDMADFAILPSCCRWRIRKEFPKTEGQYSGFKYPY
Summary of the method: as §1

CYP4503A4 = CYP4503A4 metabolic induction (mRNA expression) in human cryopreserved platable hepatocytes; assay type: in vitro ADME; conditions: 10 μM test compound, two days treatment, mRNA by QuantiGene Plex 2.0
Experimental: In Vitro Evaluation of Test Compounds for CYP4503A4 Metabolic Induction Using Human Liver Hepatocytes.
CYP induction assessment was performed using human cryopreserved platable hepatocytes. Test compound was assessed at three or six different concentrations in duplicate.
A sandwich culture of platable cryopreserved hepatocytes was used with one day recovery period after plating. Assessment of cell morphology and confluency was performed using a phase-contrast microscope for representative wells.
The plated hepatocyte cell monolayers were treated with test compound, negative and positive controls for two days changing medium every 24 hours. On the fourth day, assessment of cell morphology and confluency was repeated to ensure cell monolayer integrity. Assessment of cell morphology and confluency was performed using a phase-contrast microscope for representative wells.
Cell monolayers were assessed for test compound cytotoxicity by an adenosine triphosphate (ATP) content assay in a separate plate.
Expression levels of mRNA for CYP1A2, CYP2B6, and CYP3A4 were evaluated by the QuantiGene® Plex 2.0 methodology.

Chain of P2X7 receptor (Q99572 whole entry): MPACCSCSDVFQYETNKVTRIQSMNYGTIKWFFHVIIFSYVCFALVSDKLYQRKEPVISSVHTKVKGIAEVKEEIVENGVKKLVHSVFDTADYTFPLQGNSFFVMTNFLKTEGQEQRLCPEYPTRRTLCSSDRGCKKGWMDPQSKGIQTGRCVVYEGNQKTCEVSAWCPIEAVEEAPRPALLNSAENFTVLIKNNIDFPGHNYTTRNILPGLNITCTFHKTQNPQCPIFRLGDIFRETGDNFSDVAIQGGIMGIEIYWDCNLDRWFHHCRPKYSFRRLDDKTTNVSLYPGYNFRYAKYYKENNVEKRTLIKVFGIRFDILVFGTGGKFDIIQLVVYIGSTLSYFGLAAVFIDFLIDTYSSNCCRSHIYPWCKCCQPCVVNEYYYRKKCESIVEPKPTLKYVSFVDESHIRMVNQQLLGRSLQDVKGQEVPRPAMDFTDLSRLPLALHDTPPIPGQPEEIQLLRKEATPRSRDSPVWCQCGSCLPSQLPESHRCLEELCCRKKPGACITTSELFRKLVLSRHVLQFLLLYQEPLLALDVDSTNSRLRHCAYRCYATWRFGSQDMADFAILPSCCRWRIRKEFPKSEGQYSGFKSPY

| Compound | IC50 (P2X7 receptor) [nM] | IC50 (mP2X7) [nM] | CYP4503A4 mRNA fold increase at 10 μM (CYP4503A4) [fold] |
| --- | --- | --- | --- |
| O=C(NCC(c1scnc1C(F)F)N1CCC(Oc2nc(C3CC3)ns2)CC1)c1c(F)cccc1Cl (stereo not drawn) [Example 13, 2-Chloro-N-(2-{4-[(3-cyclopropyl-1,2,4-thiadiazol-5-yl)oxy]piperidin-1-yl}-2-[4-(difluoromethyl)-1,3-thiazol-5-yl]ethyl)-6-fluorobenzamide] | 19.2 | 33.4 | 9.7 |
| O=C(NCC(c1scnc1C(F)F)N1CCC(Oc2ccc(F)nn2)CC1)c1c(F)cccc1Cl (stereo not drawn) [Example 32, 2-Chloro-N-{2-[4-(difluoromethyl)-1,3-thiazol-5-yl]-2-{4-[(6-fluoropyridazin-3-yl)oxy]piperidin-1-yl}ethyl}-6-fluorobenzamide] | 21.3 | 82 | 6.0 |
| O=C(NCC(c1scnc1C(F)F)N1CCC(Oc2cncc3nncn23)CC1)c1c(F)cccc1Cl (stereo not drawn) [Example 45] | 254 | 550 | 1.9 |
| O=C(NCC(c1scnc1C(F)F)N1CCC(Oc2nccn3cnnc23)CC1)c1c(F)cccc1Cl (stereo not drawn) [Example 46, 2-Chloro-N-{2-[4-(difluoromethyl)-1,3-thiazol-5-yl]-2-(4-{[1,2,4]triazolo[4,3-a]pyrazin-8-yloxy}piperidin-1-yl)ethyl}-6-fluorobenzamide] | 264 | 658 | 4.5 |
| O=C(NCC(c1scnc1C(F)F)N1CCC(Oc2ccnc3cccnc23)CC1)c1c(F)cccc1Cl (stereo not drawn) [Example 48, 2-Chloro-N-{2-[4-(difluoromethyl)-1,3-thiazol-5-yl]-2-[4-(1,5-naphthyridin-4-yloxy)piperidin-1-yl]ethyl}-6-fluorobenzamide] | 74.9 | 36 | 7.6 |
| COc1cc(OC2CCN(C(CNC(=O)c3c(F)cccc3Cl)c3scnc3C(F)F)CC2)ncn1 (stereo not drawn) [Example 65, 2-Chloro-N-{2-[4-(difluoromethyl)-1,3-thiazol-5-yl]-2-{4-[(6-methoxypyrimidin-4-yl)oxy]piperidin-1-yl}ethyl}-6-fluorobenzamide] | 56.2 | 96.2 | 4.9 |
| Cc1cc(OC2CCN(C(CNC(=O)c3c(F)cccc3Cl)c3scnc3C(F)F)CC2)ccn1 (stereo not drawn) [Example 73, 2-Chloro-N-{2-[4-(difluoromethyl)-1,3-thiazol-5-yl]-2-{4-[(2-methylpyridin-4-yl)oxy]piperidin-1-yl}ethyl}-6-fluorobenzamide] | 64.9 | 70.9 | 2.4 |
| O=C(NCC(c1scnc1C(F)F)N1CCC(Oc2nccc(Cl)n2)CC1)c1c(F)cccc1Cl (stereo not drawn) [Example 75, 2-chloro-N-(2-{4-[(4-chloropyrimidin-2-yl)oxy]piperidin-1-yl}-2-[4-(difluoromethyl)-1,3-thiazol-5-yl]ethyl)-6-fluorobenzamide] | 53.8 | 82.1 | 2.2 |
| O=C(NCC(c1scnc1C(F)F)N1CCC(Oc2cncc(Cl)n2)CC1)c1c(F)cccc1Cl (stereo not drawn) [Example 76, 2-Chloro-N-(2-{4-[(6-chloropyrazin-2-yl)oxy]piperidin-1-yl}-2-[4-(difluoromethyl)-1,3-thiazol-5-yl]ethyl)-6-fluorobenzamide] | 43.7 | 28.9 | 5.1 |
| O=C(NCC(c1scnc1C(F)F)N1CCC(Oc2ccncn2)CC1)c1c(F)cccc1Cl (stereo not drawn) [Example 78, 2-Chloro-N-{2-[4-(difluoromethyl)-1,3-thiazol-5-yl]-2-[4-(pyrimidin-4-yloxy)piperidin-1-yl]ethyl}-6-fluorobenzamide] | 73.1 | 180 | 3.6 |
| O=C(NCC(c1scnc1C(F)F)N1CCC(Oc2ccnc(F)c2)CC1)c1c(F)cccc1Cl (stereo not drawn) [Example 80, 2-Chloro-N-{2-[4-(difluoromethyl)-1,3-thiazol-5-yl]-2-{4-[(2-fluoropyridin-4-yl)oxy]piperidin-1-yl}ethyl}-6-fluorobenzamide] | 20.3 | 36.9 | 6.0 |
| O=C(NCC(c1scnc1C(F)F)N1CCC(Oc2cc(F)ccn2)CC1)c1c(F)cccc1Cl (stereo not drawn) [Example 81, 2-chloro-N-{2-[4-(difluoromethyl)-1,3-thiazol-5-yl]-2-{4-[(4-fluoropyridin-2-yl)oxy]piperidin-1-yl}ethyl}-6-fluorobenzamide] | 20.1 | 38.1 | 4.8 |
| Cc1nsc(OCC2CCN(C(CNC(=O)c3c(F)cccc3Cl)c3scnc3C(F)F)CC2)n1 (stereo not drawn) [Example 85, 2-Chloro-N-{2-[4-(difluoromethyl)-1,3-thiazol-5-yl]-2-(4-{[(3-methyl-1,2,4-thiadiazol-5-yl)oxy]methyl}piperidin-1-yl)ethyl}-6-fluorobenzamide] | 32.4 | 68.7 | 9.7 |
| O=C(NCC(c1scnc1C(F)F)N1CCC(COc2nc(C3CC3)ns2)CC1)c1c(F)cccc1Cl (stereo not drawn) [Example 87, 2-Chloro-N-[2-(4-{[(3-cyclopropyl-1,2,4-thiadiazol-5-yl)oxy]methyl}piperidin-1-yl)-2-[4-(difluoromethyl)-1,3-thiazol-5-yl]ethyl]-6-fluorobenzamide] | 36.9 | 30.4 | 6.4 |
| N#Cc1cncc(OCC2CCN(C(CNC(=O)c3c(F)cccc3Cl)c3scnc3C(F)F)CC2)c1 (stereo not drawn) [Example 91, 2-Chloro-N-[2-(4-{[(5-cyanopyridin-3-yl)oxy]methyl}piperidin-1-yl)-2-[4-(difluoromethyl)-1,3-thiazol-5-yl]ethyl]-6-fluorobenzamide] | 39.5 | 38.9 | 7.4 |
| O=C(NCC(c1scnc1C(F)F)N1CCC(COc2nc3ccccc3s2)CC1)c1c(F)cccc1Cl (stereo not drawn) [Example 93, N-(2-{4-[(1,3-Benzothiazol-2-yloxy)methyl]piperidin-1-yl}-2-[4-(difluoromethyl)-1,3-thiazol-5-yl]ethyl)-2-chloro-6-fluorobenzamide] | 43.6 | 22.7 | 6.5 |
| Cc1ccc(OCC2CCN(C(CNC(=O)c3c(F)cccc3Cl)c3scnc3C(F)F)CC2)nn1 (stereo not drawn) [Example 101, 2-Chloro-N-{2-[4-(difluoromethyl)-1,3-thiazol-5-yl]-2-(4-{[(6-methylpyridazin-3-yl)oxy]methyl}piperidin-1-yl)ethyl}-6-fluorobenzamide] | 87.8 | 76.6 | 3.9 |
| O=C(NCC(c1scnc1C(F)F)N1CCC(COc2cc(F)ncn2)CC1)c1c(F)cccc1Cl (stereo not drawn) [Example 103, 2-Chloro-N-{2-[4-(difluoromethyl)-1,3-thiazol-5-yl]-2-(4-{[(6-fluoropyrimidin-4-yl)oxy]methyl}piperidin-1-yl)ethyl}-6-fluorobenzamide] | 21.1 | 34 | 5.0 |
| O=C(NCC(c1scnc1C(F)F)N1CCC(COc2ccc(F)nn2)CC1)c1c(F)cccc1Cl (stereo not drawn) [Example 104, 2-Chloro-N-{2-[4-(difluoromethyl)-1,3-thiazol-5-yl]-2-(4-{[(6-fluoropyridazin-3-yl)oxy]methyl}piperidin-1-yl)ethyl}-6-fluorobenzamide] | 49.6 | 103 | 7.4 |
| O=C(NCC(c1scnc1C(F)F)N1CCC(COc2nccnc2F)CC1)c1c(F)cccc1Cl (stereo not drawn) [Example 106, 2-Chloro-N-{2-[4-(difluoromethyl)-1,3-thiazol-5-yl]-2-(4-{[(3-fluoropyrazin-2-yl)oxy]methyl}piperidin-1-yl)ethyl}-6-fluorobenzamide] | 39.6 | 30.5 | 4.9 |
| N#Cc1cc(OCC2CCN(C(CNC(=O)c3c(F)cccc3Cl)c3scnc3C(F)F)CC2)ccn1 (stereo not drawn) [Example 110, 2-Chloro-N-[2-(4-{[(2-cyanopyridin-4-yl)oxy]methyl}piperidin-1-yl)-2-[4-(difluoromethyl)-1,3-thiazol-5-yl]ethyl]-6-fluorobenzamide] | 40.6 | 25 | 6.5 |
| O=C(NCC(c1scnc1C(F)F)N1CCC(COc2nccn3nccc23)CC1)c1c(F)cccc1Cl (stereo not drawn) [Example 116, 2-Chloro-N-{2-[4-(difluoromethyl)-1,3-thiazol-5-yl]-2-[4-({pyrazolo[1,5-a]pyrazin-4-yloxy}methyl)piperidin-1-yl]ethyl}-6-fluorobenzamide] | 28.5 | 11.3 | 9.8 |
| O=C(NCC(c1scnc1C(F)F)N1CCC(COc2cccc(F)n2)CC1)c1c(F)cccc1Cl (stereo not drawn) [Example 124, 2-Chloro-N-{2-[4-(difluoromethyl)-1,3-thiazol-5-yl]-2-(4-{[(6-fluoropyridin-2-yl)oxy]methyl}piperidin-1-yl)ethyl}-6-fluorobenzamide] | 18.1 | 18.5 | 6.9 |
